Laboratory results: PMC7287953, “Potential Therapeutic Targeting of Coronavirus Spike Glycoprotein Priming” (Molecules, 2020)
Where “and” joins values, the source holds several entries; their conditions need not be identical. Equal values may be shown once. Read-outs that look alike come from different tables or passages of the source.

Assays:
furin = molecular target: T1, furin (Homo sapiens, UniProt P09958); experiment: Inhibition of furin activity, fluorescent substrate Pyr-RTKR-AMC; assay type: biochemical
T1 construct: made in house
T1 sequence (P09958 108-794): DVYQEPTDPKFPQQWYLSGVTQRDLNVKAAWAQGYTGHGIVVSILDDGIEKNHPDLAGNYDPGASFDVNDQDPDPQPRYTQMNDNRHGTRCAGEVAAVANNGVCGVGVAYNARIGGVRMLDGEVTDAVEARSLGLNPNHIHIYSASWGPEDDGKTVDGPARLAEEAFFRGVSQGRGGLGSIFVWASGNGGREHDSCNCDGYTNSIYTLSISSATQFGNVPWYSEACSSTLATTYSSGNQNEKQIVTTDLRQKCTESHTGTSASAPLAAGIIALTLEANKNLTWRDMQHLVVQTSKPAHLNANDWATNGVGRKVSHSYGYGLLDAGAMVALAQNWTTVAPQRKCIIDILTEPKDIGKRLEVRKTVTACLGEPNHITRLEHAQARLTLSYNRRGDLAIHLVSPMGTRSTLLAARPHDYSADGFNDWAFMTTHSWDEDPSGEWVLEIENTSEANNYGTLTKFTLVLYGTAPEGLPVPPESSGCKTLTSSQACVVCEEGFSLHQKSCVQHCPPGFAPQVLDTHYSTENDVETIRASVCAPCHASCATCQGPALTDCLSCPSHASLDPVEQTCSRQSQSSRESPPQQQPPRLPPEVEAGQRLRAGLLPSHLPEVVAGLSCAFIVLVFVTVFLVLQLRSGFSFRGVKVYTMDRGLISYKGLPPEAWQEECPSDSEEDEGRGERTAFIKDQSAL

[1] = tested on: SARS-CoV2 surrogate viral particles; conditions: human cells; cited from earlier work
in vivo = conditions: mouse
[2] = molecular target: T2, trypsin from bovine pancreas (Bos taurus, UniProt P00760); experiment: Inhibition of trypsin from bovine pancreas; assay type: biochemical; conditions: at 10 µM; trypsin as model enzyme for TMPRSS2
T2 construct: from tissue; host or cells: bovine pancreas
T2 sequence (P00760 24-246): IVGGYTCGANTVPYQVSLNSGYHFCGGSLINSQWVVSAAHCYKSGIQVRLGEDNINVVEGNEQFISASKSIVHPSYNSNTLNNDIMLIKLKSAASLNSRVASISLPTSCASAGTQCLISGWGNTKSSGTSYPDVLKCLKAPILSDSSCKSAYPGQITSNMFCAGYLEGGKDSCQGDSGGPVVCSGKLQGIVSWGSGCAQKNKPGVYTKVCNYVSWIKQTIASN

hPC7 = molecular target: T3, hPC7 (Homo sapiens, UniProt Q16549); experiment: Specificity for furin-like PCs: hPC7 inhibition; assay type: biochemical; conditions: Table S2
T3 sequence (Q16549 142-785): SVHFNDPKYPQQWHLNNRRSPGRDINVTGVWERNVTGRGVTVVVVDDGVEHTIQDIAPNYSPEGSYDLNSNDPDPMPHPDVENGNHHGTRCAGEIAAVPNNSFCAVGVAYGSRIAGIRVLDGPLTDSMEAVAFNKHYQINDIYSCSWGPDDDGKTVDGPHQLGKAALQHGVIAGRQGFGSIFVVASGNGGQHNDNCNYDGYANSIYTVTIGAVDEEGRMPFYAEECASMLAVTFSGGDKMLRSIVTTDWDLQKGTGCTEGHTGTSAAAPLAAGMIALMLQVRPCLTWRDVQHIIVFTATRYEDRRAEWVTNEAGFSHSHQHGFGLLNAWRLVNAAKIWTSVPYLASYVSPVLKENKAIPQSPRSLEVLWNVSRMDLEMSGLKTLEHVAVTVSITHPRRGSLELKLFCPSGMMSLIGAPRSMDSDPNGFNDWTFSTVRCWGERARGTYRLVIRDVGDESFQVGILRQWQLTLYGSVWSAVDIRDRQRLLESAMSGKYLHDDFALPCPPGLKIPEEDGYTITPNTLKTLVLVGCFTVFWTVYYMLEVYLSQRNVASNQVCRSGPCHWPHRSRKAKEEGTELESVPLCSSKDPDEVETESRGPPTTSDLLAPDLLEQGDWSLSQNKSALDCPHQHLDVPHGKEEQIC

hPC2 = molecular target: T4, hPC2 (Homo sapiens, UniProt P16519); experiment: Specificity for furin-like PCs: hPC2 inhibition; assay type: biochemical; conditions: Table S2
T4 sequence (P16519 110-638): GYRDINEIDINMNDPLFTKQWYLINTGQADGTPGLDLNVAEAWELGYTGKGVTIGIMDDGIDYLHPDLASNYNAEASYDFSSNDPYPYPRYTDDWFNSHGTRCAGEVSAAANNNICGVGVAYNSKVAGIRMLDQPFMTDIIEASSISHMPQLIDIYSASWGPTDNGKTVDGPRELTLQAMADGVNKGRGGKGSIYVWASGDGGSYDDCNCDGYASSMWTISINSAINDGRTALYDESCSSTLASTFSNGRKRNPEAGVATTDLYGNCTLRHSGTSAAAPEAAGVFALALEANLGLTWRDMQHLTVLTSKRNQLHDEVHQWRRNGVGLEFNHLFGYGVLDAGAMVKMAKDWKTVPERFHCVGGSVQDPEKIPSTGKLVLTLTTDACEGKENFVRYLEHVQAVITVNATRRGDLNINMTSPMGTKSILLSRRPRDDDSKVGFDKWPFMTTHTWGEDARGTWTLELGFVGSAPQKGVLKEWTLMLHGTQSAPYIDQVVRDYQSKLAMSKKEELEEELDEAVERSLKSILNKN

Plasma stability by LCMS = conditions: rat plasma, after 60 min incubation
[3] = tested on: RAW 264.7 murine monocyte macrophages; assay type: cell-based
anthrax toxin LF/PA = tested on: anthrax toxin LF/PA; set-up: species or system Balb/c mice; conditions: mouse, in vivo
hPC1/3 = molecular target: T5, hPC1/3 (Homo sapiens, UniProt P29120); experiment: Inhibition of hPC1/3 activity, fluorescent substrate Pyr-RTKR-AMC; assay type: biochemical
T5 sequence (P29120 111-753): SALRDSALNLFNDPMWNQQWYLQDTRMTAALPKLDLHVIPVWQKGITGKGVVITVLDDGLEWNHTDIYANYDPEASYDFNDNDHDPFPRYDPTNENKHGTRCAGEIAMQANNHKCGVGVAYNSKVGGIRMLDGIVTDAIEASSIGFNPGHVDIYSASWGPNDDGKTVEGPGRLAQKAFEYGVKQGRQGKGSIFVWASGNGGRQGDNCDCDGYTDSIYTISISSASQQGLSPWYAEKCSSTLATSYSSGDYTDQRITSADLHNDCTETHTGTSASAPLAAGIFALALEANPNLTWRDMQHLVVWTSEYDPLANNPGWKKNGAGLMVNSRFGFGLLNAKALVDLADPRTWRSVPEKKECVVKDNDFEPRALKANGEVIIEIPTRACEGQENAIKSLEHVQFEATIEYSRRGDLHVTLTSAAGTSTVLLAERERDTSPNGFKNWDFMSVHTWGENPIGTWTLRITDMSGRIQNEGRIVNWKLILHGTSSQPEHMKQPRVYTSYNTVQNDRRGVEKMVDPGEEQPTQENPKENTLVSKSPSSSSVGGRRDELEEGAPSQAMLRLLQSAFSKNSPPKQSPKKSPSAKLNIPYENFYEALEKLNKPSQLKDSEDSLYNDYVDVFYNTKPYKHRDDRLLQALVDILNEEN

[4] = Toxicity study, I.P. dosing and blood chemistry
[5] = mouse, in vivo, 30 mg/kg
physchem = conditions: 25 °C, pH 7.2, aqueous buffer

In the case of `CN(C)C(=O)COC(=O)Cc1ccc(OC(=O)c2ccc(NC(=N)N)cc2)cc1` [camostat], the “inhibition of furin (in words)” value (furin) is listed as “poor furin inhibitor”, the “inhibition of furin (in words)” value (furin; listed as camostat mesylate) is listed as “did not appreciably inhibit furin” and the “concentrations that attenuated (only partially) entry of SARS-CoV2 surrogate viral particles” value [1] is listed as 10 to 50 µM.
Work on `CC(=O)N[C@@H](CCCNC(=N)N)C(=O)N[C@H](C(=O)N[C@@H](Cc1ccc(N=C(N)N)cc1)C(=O)NCc1ccc(C(=N)N)cc1)C(C)C` [compound 1] yielded a bioavailability (in vivo; %F I.P./I.V.) of roughly 100%, a bioavailability (in vivo; %F P.O./I.V.) of less than 1% and an AUC (in vivo; ip, 3 mg/kg) of 2600 ng·h/mL. For the same compound, the AUC (in vivo; iv, 1 mg/kg) was 870 ng·h/mL, the AUC (in vivo; po, 30 mg/kg) was 26 ng·h/mL and the inhibition of trypsin [2] was “can inhibit this enzyme”. The IC50 (hPC7) was 11800 nM, the IC50 (hPC2) was 1860 nM and the IC50 (furin) was 9 nM. For the same compound, the “plasma stability, intact” value (Plasma stability by LCMS) was greater than 86%, the “EC50 protection of RAW macrophages from LF/PA-induced cell death” value [3] was “low micromolar range” and the “MST (median survival time)” value (anthrax toxin LF/PA) was 31.5 h and 52.5 h. The “TTD (time to death)” value (anthrax toxin LF/PA) was 48 h and 96 h, the IC50 (hPC1/3) was 3 nM and the “other blood chemistry values” ([4]; 5 min after single 20 mg/kg injection) was “normal”. The “acute toxicity, blood chemistry finding” value ([4]; 5 min after single 20 mg/kg injection, compared to control group) was “gross hemolysis”, the MTD ([4]; female, Balb/c, mouse, in vivo, ip) was roughly 10 mg/kg and the mice that died ([4]; single dose 15 mg/kg I.P., 1 h after compound administration) was “all mice”. For the same compound, the mice that died ([4]; single dose 20 mg/kg I.P., 15 min after compound injection) was 2 out of 3, the “absorption after oral administration (in words)” value [5] was “insignificant adsorption” and the solubility (physchem) was greater than 1000 µM.
